# Results reported in patent publication US20240262832A1, “SMALL MOLECULE MODULATORS OF GLUCOCEREBROSIDASE ACTIVITY AND USES THEREOF” (Vanqua Bio, Inc., priority 2021, published 2024).
# Biological target: T1, GCase (Homo sapiens, UniProt P04062)
# T1 construct: endogenous in cells; host or cells: HeLa cells
# T1 sequence (P04062 40-536): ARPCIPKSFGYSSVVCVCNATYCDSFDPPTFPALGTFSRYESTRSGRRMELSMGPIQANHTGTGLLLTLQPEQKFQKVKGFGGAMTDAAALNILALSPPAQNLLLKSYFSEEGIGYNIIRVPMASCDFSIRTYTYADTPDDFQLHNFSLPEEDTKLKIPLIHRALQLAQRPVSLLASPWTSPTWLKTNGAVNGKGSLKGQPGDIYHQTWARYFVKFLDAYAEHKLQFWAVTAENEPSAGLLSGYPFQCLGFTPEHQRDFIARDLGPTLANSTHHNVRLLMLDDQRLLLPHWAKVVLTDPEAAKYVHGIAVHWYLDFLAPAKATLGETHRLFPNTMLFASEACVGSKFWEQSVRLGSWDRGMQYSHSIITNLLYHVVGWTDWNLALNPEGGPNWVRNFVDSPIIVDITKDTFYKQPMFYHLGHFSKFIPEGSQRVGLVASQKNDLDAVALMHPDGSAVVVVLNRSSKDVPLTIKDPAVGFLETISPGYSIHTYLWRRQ
# Experiment: activation of GCase in a live cell PFB assay in HELA cells
# Format: cell-based
row,SMILES,EC50 [µM]
1,O=C(c1cnn[nH]1)N1CCC(COc2ccc3c(c2)CCC3)CC1 [Compound 423],50 to 100
2,CCc1ncc(C(=O)N2CCC(COc3ccc4c(c3)CCC4)CC2)cn1 [Compound 426],10 to 50
3,COc1ccc(OCC2CCN(c3ncnc4cc[nH]c34)CC2)cc1 [Compound 427],10 to 50
4,CN1CCC(COc2cccc(-c3cnc4ccccc4n3)c2)CC1 [Compound 428],10 to 50
5,COc1ccc(OCC2CCN(c3cncc(N)n3)CC2)cc1 [Compound 431],50 to 100
6,COc1ccc(OCC2CCN(C(=O)NCCc3cn[nH]c3)CC2)cc1 [Compound 432],50 to 100
7,CSCc1ccc(C(=O)N2CCC(OCc3ccccc3)CC2)o1 [Compound 435],> 100
8,CCc1noc(CNC(=O)N2CCC(COc3ccc(OC)cc3)CC2)n1 [Compound 436],> 100
9,CCNC(=O)c1ccc(N2CCC(COc3ccc(OC)cc3)CC2)nc1 [Compound 438],10 to 50
10,NCCn1cc(C(=O)N2CCC(COc3ccc4c(c3)CCC4)CC2)nn1 [Compound 440],> 100
11,COc1ccc(OCC2CCN(C(=O)Nc3cccc(CN)c3)CC2)cc1 [Compound 442],> 100
12,COc1ccc(OCC2CCN(C(=O)Nc3ccc(C#N)cc3F)CC2)cc1 [Compound 443],50 to 100
13,COc1ccc(OCC2CCN(C(=O)c3cccc(NC(=O)C(C)C)c3)CC2)cc1 [Compound 446],10 to 50
14,COc1cccn(CC(=O)N2CCC(OCc3ccccc3)CC2)c1=O [Compound 447],> 100
15,O=C(c1ccc(Cn2cccn2)o1)N1CCC(OCc2ccccc2)CC1 [Compound 449],> 100
16,Cc1nccn1CCCC(=O)N1CCC(OCc2ccccc2)CC1 [Compound 451],> 100
17,COc1ccc(OCC2CCN(C(=O)c3cnc(O)cn3)CC2)cc1 [Compound 452],> 100
18,CCc1nc(CNC(=O)N2CCC(COc3ccc(OC)cc3)CC2)no1 [Compound 460],50 to 100
19,COc1ccc(OCC2CCN(C(=O)c3cc(C(C)C)nc(N)n3)CC2)cc1 [Compound 461],10 to 50
20,COc1ccc(OCC2CCN(C(=O)c3cnc(N)nc3C)CC2)cc1 [Compound 462],> 100
21,CCCc1[nH]ncc1C(=O)N1CCC(OCc2ccccc2)CC1 [Compound 465],50 to 100
22,COc1ccc(OCC2CCN(C(=O)Cc3ccccn3)CC2)cc1 [Compound 466],> 100
23,O=C(c1ccc(-c2nnc[nH]2)cc1)N1CCC(OCc2ccccc2)CC1 [Compound 468],50 to 100
24,CCn1cc(-c2cccc(C(=O)N3CCC(OCc4ccccc4)CC3)c2)cn1 [Compound 476],50 to 100
25,CC(=O)c1ccc(OCC(=O)N2CCC(OCc3ccccc3)CC2)cc1 [Compound 478],50 to 100
26,COc1ccc(OCC2CCN(C(=O)NCCc3nccs3)CC2)cc1 [Compound 480],> 100
27,COc1ccc(OCC2CCN(C(=O)c3c(C)cccc3OC)CC2)cc1 [Compound 481],10 to 50
28,COc1ccc(OCC2CCN(c3cc(C4CC(N)C4)ncn3)CC2)cc1 (stereo not shown) [Compound 482],> 100
29,Cc1ccc(-c2nc(N3CCC(CO)CC3)ncc2-c2ccc(CO)cc2)cc1 [Compound 485],10 to 50
30,COCCNc1nc2cc(C(=O)N3CCC(O)(CO)CC3)ccc2n1C [Compound 486],10 to 50

# Continued, values first:
row,EC50 [µM],SMILES
1,10 to 50,COc1ccc(OCC2CCN(C(=O)c3cccc(C#CC(C)(C)O)c3)CC2)cc1 [Compound 420]
2,10 to 50,COc1ccc(OCC2CCN(c3nc(C)ncc3Cl)CC2)cc1 [Compound 421]
3,10 to 50,COc1ccc(OCC2CCN(C(=O)COCC3CCCO3)CC2)cc1 (stereo not shown) [Compound 422]
4,< 10,COc1ccc(OCC2CCN(c3nccc(N4CCCC(O)C4)n3)CC2)cc1 (stereo not shown) [Compound 424]
5,> 100,COc1ccc(OCC2CCN(Cc3cc(C)no3)CC2)cc1 [Compound 425]
6,> 100,COc1ccc(OCC2CCN(c3nnc(N)s3)CC2)cc1 [Compound 429]
7,50 to 100,COc1ccc(OCC2CCN(c3nncc(C)c3C)CC2)cc1 [Compound 430]
8,10 to 50,COc1ccc(OCC2CCN(C(=O)c3ccc(C#CC(C)(C)O)o3)CC2)cc1 [Compound 433]
9,> 100,CCN1CCC(NC(=O)N2CCC(COc3ccc(OC)cc3)CC2)C1 (stereo not shown) [Compound 434]
10,10 to 50,COc1ccc(OCC2CCN(c3cncc(C(=O)N4CCCC4)n3)CC2)cc1 [Compound 437]
11,50 to 100,COc1ccc(OCC2CCN(C(=O)Nc3cnn(C)c3C)CC2)cc1 [Compound 439]
12,> 100,COc1ccc(OCC2CCN(c3nccnc3N(C)C)CC2)cc1 [Compound 441]
13,> 100,COc1ccc(OCC2CCN(Cc3cnc(C)[nH]3)CC2)cc1 [Compound 444]
14,> 100,COc1ccc(OCC2CCN(Cc3ccncc3C)CC2)cc1 [Compound 445]
15,10 to 50,COc1ccc(OCC2CCN(Cc3ccc(CO)o3)CC2)cc1 [Compound 448]
16,10 to 50,COc1ccc(OCC2CCN(Cc3ncc[nH]3)CC2)cc1 [Compound 450]
17,> 100,COc1ccc(OCC2CCN(Cc3[nH]cnc3C)CC2)cc1 [Compound 453]
18,> 100,COc1ccc(OCC2CCN(CCCn3ccnc3C)CC2)cc1 [Compound 454]
19,10 to 50,CCn1ncnc1CN1CCC(COc2ccc(OC)cc2)CC1 [Compound 455]

row,EC50 [µM],SMILES
1,< 10,COc1ccc(OCC2CCN(Cc3c[nH]c(C#N)c3)CC2)cc1 [Compound 456]
2,> 100,COc1ccc(OCC2CCN(C(=O)c3ccc(CN4CCCC4)o3)CC2)cc1 [Compound 457]
3,> 100,COc1ccc(OCC2CCN(c3nc(N)nc(C)c3C)CC2)cc1 [Compound 458]
4,10 to 50,COc1ccc(OCC2CCN(C(=O)c3cc(C)oc3C)CC2)cc1 [Compound 459]
5,50 to 100,COc1ccc(OCC2CCN(C(=O)c3cnc[nH]3)CC2)cc1 [Compound 463]
6,10 to 50,CCc1cc(N2CCC(COc3ccc(OC)cc3)CC2)ncn1 [Compound 464]
7,> 100,COc1ccc(OCC2CCN(CC(C)(C)N3CCOCC3)CC2)cc1 [Compound 467]
8,> 100,C=CCn1ncc(CN2CCC(COc3ccc(OC)cc3)CC2)c1C [Compound 469]
9,> 100,CCc1nc(CN2CCC(COc3ccc(OC)cc3)CC2)no1 [Compound 470]
10,50 to 100,COc1ccc(OCC2CCN(Cc3noc(C4CCCO4)n3)CC2)cc1 (stereo not shown) [Compound 471]
11,50 to 100,COc1ccc(OCC2CCN(C(=O)CC3CCOC3)CC2)cc1 (stereo not shown) [Compound 472]
12,> 100,COc1ccc(OCC2CCN(Cc3nnc(C4CC(N)C4)n3C)CC2)cc1 (stereo not shown) [Compound 473]
13,> 100,COc1ccc(OCC2CCN(C(=O)CN3CCCN(C)CC3)CC2)cc1 [Compound 474]
14,10 to 50,CCc1cnc(C)nc1N1CCC(COc2ccc(OC)cc2)CC1 [Compound 475]
15,< 10,COc1ccc(OCC2CCN(Cc3cscn3)CC2)cc1 [Compound 477]
16,10 to 50,COc1ccc(OCC2CCN(CC(=O)Nc3cn(C)nc3C)CC2)cc1 [Compound 479]
17,50 to 100,COc1ccc(OCC2CCN(C(=O)CN3C(=O)CCC3C)CC2)cc1 (stereo not shown) [Compound 483]
18,> 100,COc1ccc(OCC2CCN(C(=O)Cn3cnnn3)CC2)cc1 [Compound 484]
